Legend:
pERK in H358 cells = experiment: pERK inhibition in H358 cells; assay type: cell-based, human; details: 4 hours treatment, read-out: Cellular pERK inhibition
Procedure: H358 cells (5500 cells) derived from a human lung cancer were plated in a 96 well plate in media (100 uL, RPMI with 10% FBS). After 24 hours, cells were treated for 4 hours with compound or DMSO. Cells were washed twice with room temperature TBS (200 uL) and fixed for 20 minutes with 4% paraformaldehyde diluted with TBS (150 uL). Cells were washed four times for five minutes with 0.1% TritonX/TBS (150 uL) to permeabilize the membrane. Cells were incubated with TBS blocking buffer (100 uL) at room temperature for 60 minutes. Primary antibody (Phospho-p44/42 MAPK (Erk1/2) (Thr202/Tyr204) (D13.14.4E) XP® Rabbit mAb #4370, Cell Signaling Technology; 1:200) was added, and the cells were incubated overnight at 4 C. The cells were washed four times for five minutes with 0.1% Tween 20/TBS (150 uL). Secondary antibody (IRDye® 800CW Goat-Anti-Rabbit IgG, Li-Cor Biosciences; 1:1000) and DRAQ5™ (Invitrogen; 1:2000) was added, and the cells were incubated for 1 hour at room temperature. The cells were washed four times for five minutes with 0.1% Tween 20/TBS (150 uL) and scanned using the LICOR (700 and 800 nm).

cyclophilin A (CYPA) = cyclophilin A (CYPA) (Homo sapiens, UniProt P62937); experiment: CYPA-compound binary complex formation by SPR; details: read-out: CYPA Binding Affinity
Outline: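 CypA-Avi captured on a Biotin CAPture chip (4 μg/ml), reference flow cell subtracted. Compounds injected as 10-point 2-fold dilutions from 50 μM in HBS-P+ pH7.4 with 2% DMSO; 60 s association and 60 s dissociation, solvent-corrected. Affinity obtained by steady-state fitting.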

[1] = target: T1, BRAF-GTP-KRAS-G12C complex (Homo sapiens, UniProt P01116+P62937, G12C); experiment: KRAS-BRAF complex disruption through competition with CYPA-compound by TR-FRET; details: biochemical BRAF-KRAS G12C-GTP disruption assay EC50, with CYPA
T1 construct: 50 nM of His6-KRas G12C-GTP (1-169); 500 nM of tagless CypA (1-165)
Outline: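 His6-KRAS G12C-GTP (1-169, 50 nM) with tagless CypA (1-165, 500 nM) was incubated with compound for 3 h at room temperature in pH 7.3 Hepes/NaCl/MgCl2 buffer containing GST-BRAF RBD. Anti-His Eu (10 nM) and anti-GST APC (50 nM) were then added for 1.5 h, and the 665/615 nm TR-FRET ratio was read. EC50 from 4-parameter fit; for specificity, wild-type KRAS replaced G12C, and CypA was omitted to test presenter dependence.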

Structure (SMILES)	IC50 (pERK in H358 cells) [µM]	Kd (cyclophilin A (CYPA)) [µM]	EC50 [1] [µM]
CC(C)[C@@H](C(=O)N[C@H]1Cc2cc(O)cc(c2)-c2ccc3c(C(C)(C)C#N)cn(c3c2)C[C@H](C)COC(=O)[C@@H]2CCCN(N2)C1=O)N1CC[C@@H](NC(=O)CCl)C1=O [Compound 28]	> 10	≤ 5	0.5 to 5
CC(C)[C@@H](C(=O)N[C@H]1Cc2cc(O)cc(c2)-c2ccc3c(C(C)(C)C#N)cn(c3c2)C[C@H](C)COC(=O)[C@@H]2CCCN(N2)C1=O)N1CC[C@@H](N(C)C(=O)CCl)C1=O [Compound 30]	1 to 10	≤ 5	0.5 to 5
CC(C)C(C(=O)NC1Cc2cc(O)cc(c2)-c2ccc3c(C(C)(C)C#N)cn(c3c2)CC(C)(C)COC(=O)C2CCCN(N2)C1=O)N(C)C(=O)C1CCN(C(=O)CCl)C1 (stereo not drawn) [Compound 33]	≤ 1	5 to 15	≤ 0.5
CC(C)[C@@H](C(=O)N[C@H]1Cc2cc(O)cc(c2)-c2ccc3c(C(C)(C)C#N)cn(c3c2)CC(C)(C)COC(=O)[C@@H]2CCCN(N2)C1=O)N(C)C(=O)C1(F)CN(C(=O)[C@@H](C)Cl)C1 [Compound 35]	> 10	5 to 15	> 5
CC(C)[C@@H](C(=O)N[C@H]1Cc2cc(O)cc(c2)-c2ccc3c(C(C)(C)C#N)cn(c3c2)CC(CC#N)COC(=O)[C@@H]2CCCN(N2)C1=O)N(C)C(=O)C1CN(C(=O)CCl)C1 (stereo partly drawn) [Compound 39]	> 10	5 to 15	≤ 0.5
C=CC(=O)N1CC2(CCN(C(C(=O)NC3Cc4cc(O)cc(c4)-c4ccc5c(C(C)(C)C#N)cn(c5c4)CC(C)(C)COC(=O)C4CCCN(N4)C3=O)C(C)C)C2=O)C1 (stereo not drawn) [Compound 42]	1 to 10	5 to 15	0.5 to 5
CC(C)C(C(=O)NC1Cc2cc(O)cc(c2)-c2ccc3c(C(C)(C)C#N)cn(c3c2)CC(C)(C)COC(=O)C2CCCN(N2)C1=O)N1CCC2(CN(C(=O)CCl)C2)C1=O (stereo not drawn) [Compound 44]	1 to 10	5 to 15	≤ 0.5
CC1COC(=O)C2CCCN(N2)C(=O)C(NC(=O)C(C(C)C)N(C)C(=O)C2CN(C(=O)CCl)C2)Cc2cc(O)cc(c2)-c2ccc3c(-c4cccc(C#N)c4)cn(c3c2)C1 (stereo not drawn) [Compound 46]	≤ 1	5 to 15	≤ 0.5
COc1ccccc1-c1cn2c3cc(ccc13)-c1cc(O)cc(c1)CC(NC(=O)C(C(C)C)N(C)C(=O)C1CN(C(=O)CCl)C1)C(=O)N1CCCC(N1)C(=O)OCC(C)C2 (stereo not drawn) [Compound 48]	1 to 10	5 to 15	≤ 0.5
COc1ccc(-c2cn3c4cc(ccc24)-c2cc(O)cc(c2)C[C@H](NC(=O)[C@H](C(C)C)N(C)C(=O)C2CN(C(=O)CCl)C2)C(=O)N2CCC[C@H](N2)C(=O)OC[C@@H](C)C3)cc1 [Compound 50]	1 to 10	5 to 15	≤ 0.5
CC[C@@H](C(=O)N[C@H]1Cc2cc(O)cc(c2)-c2ccc3c(C(C)(C)C#N)cn(c3c2)CC(C)(C)COC(=O)[C@@H]2CCCN(N2)C1=O)N(C)C(=O)C1CN(C(=O)CCl)C1 [Compound 56]	> 10	> 15	≤ 0.5
CN(C(=O)C1CN(C(=O)CCl)C1)[C@@H](CC1CC1)C(=O)N[C@H]1Cc2cc(O)cc(c2)-c2ccc3c(C(C)(C)C#N)cn(c3c2)CC(C)(C)COC(=O)[C@@H]2CCCN(N2)C1=O [Compound 57]	1 to 10	> 15	≤ 0.5
CC(C)[C@@H](C(=O)N[C@H]1Cc2cc(O)cc(n2)-c2ccc3c(C(C)(C)C#N)cn(c3c2)C[C@H](C)COC(=O)[C@@H]2CCCN(N2)C1=O)N(C)C(=O)C1CN(C(=O)CCl)C1 [Compound 59]	> 10	> 15	> 5
CC(C)[C@@H](C(=O)N[C@H]1Cc2cc(O)cc(n2)-c2ccc3c(C(C)(C)C#N)cn(c3c2)C[C@H](C)CNC(=O)[C@@H]2CCCN(N2)C1=O)N(C)C(=O)C1CN(C(=O)CCl)C1 [Compound 60]	> 10	5 to 15	> 5
CCN(C(=O)C1CN(C(=O)CCl)C1)[C@H](C(=O)N[C@H]1Cc2cc(O)cc(c2)-c2ccc3c(C(C)(C)C#N)cn(c3c2)CC(C)(C)COC(=O)[C@@H]2CCCN(N2)C1=O)C(C)C [Compound 65]	1 to 10	> 15	≤ 0.5

— patent US20240139185A1, “COMPOUNDS THAT PARTICIPATE IN COOPERATIVE BINDING AND USES THEREOF” (Revolution Medicines, Inc., priority 2018, published 2024)
